Results: US20250312343A1, “COMBINATION THERAPIES USING PRMT5 INHIBITORS AND KRAS G12D INHIBITORS FOR THE TREATMENT OF CANCER” (MIRATI THERAPEUTICS, INC., priority 2024, published 2025)

Tests used:
[1] = system: MTAP^DEL and KRAS^G12D pancreatic tumor xenograft KP4 model; test: MRTX1719 + KRAS G12D inhibitor combination study, KP4 xenograft; format: in vivo, nu/nu mice; conditions: MRTX1133 30 mg/kg BID IP; for Tumor volume: n=5/group, method gives mm^3, in mm³; for % TGI (Tumor Growth Inhibition): final vs initial treated tumor volume relative to vehicle, MRTX1719 100 mg/kg QD PO
Procedure: (§1) Immunodeficient female mice were implanted with human cancer models harboring homozygous deletion of the MTAP gene (MTAP^DEL) and a KRAS^G12D mutation. Mouse health was monitored daily, and caliper measurements began when tumors were palpable. Tumor volume measurements were determined utilizing the formula 0.5×L×W2 in which L refers to length and W refers to width of each tumor. When tumors reached approximately 200-300 mm^3, animals were randomized to receive A) vehicle, B) a PRMT5 inhibitor administered orally (PO) formulated in 0.5% methylcellulose (4000 cps)/0.2% Tween80 in water, C) KRAS G12D inhibitor administered via intraperitoneal injection (IP) formulated in 10% Captisol in 50 mM Citrate buffer pH 5.0, or D) the PRMT5 inhibitor and KRAS G12D inhibitor. Tumor volumes were measured twice a week (n=5/treatment group). Tumor Growth Inhibition (% TGI) was calculated when the average final treated tumor volume was greater than initial treated tumor volume using the formula: (1-(Final Drug Treated Tumor Volume—Initial Drug Treated Tumor Volume)/(Final Vehicle Treated Tumor Volume -Initial Vehicle Treated Tumor Volume))*100. Percent Regression (% Regression) was calculated when the average tumor volume of final treated tumors was less than initial treated tumor volume using the formula: (−100%)*(1−((Final treated tumor volume)/(Initial treated tumor volume)).
(§2) This example was conducted in immunodeficient female nu/nu mice that were implanted with 5×10^6 KP4 pancreatic cancer cells in 50% Matrigel. according to the study procedure described above. The PRMT5 inhibitor was MRTX1719 administered at 100 mg/kg once a day (QD). MRTX1719 used is a described herein.
(§3) The KRAS^G12D inhibitor used in this example was MRTX1133 administered at 30 mg/kg twice a day (BID). MRTX1133 used is as described herein.

[2] = system: MTAP^DEL and KRAS^G12D pancreatic tumor xenograft SU8686 model; test: MRTX1719 + KRAS G12D inhibitor combination study, SU8686 xenograft; format: in vivo, nu/nu mice; conditions: for Tumor volume: MRTX1133 30 mg/kg BID IP, n=5/group, method gives mm^3
Procedure: as §1
as §2, with “5×10^6 SU8686” for “5×10^6 KP4”, “is as” for “is a”
as §3

[3] = Study Day 0, MRTX1719 100 mg/kg QD PO
[4] = Study Day 3, MRTX1719 100 mg/kg QD PO
[5] = Study Day 7, MRTX1719 100 mg/kg QD PO
[6] = Study Day 10, MRTX1719 100 mg/kg QD PO
[7] = Study Day 14, MRTX1719 100 mg/kg QD PO
[8] = Study Day 17, MRTX1719 100 mg/kg QD PO
[9] = Study Day 21, MRTX1719 100 mg/kg QD PO
[10] = Study Day 24, MRTX1719 100 mg/kg QD PO
[11] = Study Day 28, MRTX1719 100 mg/kg QD PO
[12] = Study Day 31, MRTX1719 100 mg/kg QD PO
[13] = Study Day 2, MRTX1719 100 mg/kg QD PO
[14] = Study Day 9, MRTX1719 100 mg/kg QD PO
[15] = Study Day 13, MRTX1719 100 mg/kg QD PO
[16] = Study Day 16, MRTX1719 100 mg/kg QD PO
[17] = Study Day 20, MRTX1719 100 mg/kg QD PO
[18] = Study Day 23, MRTX1719 100 mg/kg QD PO
[19] = Study Day 34, MRTX1719 100 mg/kg QD PO
[20] = Study Day 37, MRTX1719 100 mg/kg QD PO
[21] = Study Day 41, MRTX1719 100 mg/kg QD PO
[22] = Study Day 44, MRTX1719 100 mg/kg QD PO
[23] = Study Day −1, MRTX1719 100 mg/kg QD PO

| SMILES | Tumor volume [1, 3] | Tumor volume [1, 4] | Tumor volume [1, 5] | Tumor volume [1, 6] | Tumor volume [1, 7] | Tumor volume [1, 8] | Tumor volume [1, 9] | Tumor volume [1, 10] | % TGI (Tumor Growth Inhibition) [1] | Tumor volume [2, 13] | Tumor volume [2, 5] | Tumor volume [2, 14] | Tumor volume [2, 15] | Tumor volume [2, 16] | Tumor volume [2, 17] | Tumor volume [2, 18] | Tumor volume [2, 11] | Tumor volume [2, 12] | Tumor volume [2, 19] | Tumor volume [2, 20] | further results |
| --- | --- | --- | --- | --- | --- | --- | --- | --- | --- | --- | --- | --- | --- | --- | --- | --- | --- | --- | --- | --- | --- |
| C#Cc1c(F)ccc2cc(O)cc(-c3ncc4c(N5CC6CCC(C5)N6)nc(OC[C@@]56CCCN5C[C@H](F)C6)nc4c3F)c12 [MRTX1133] | 276 | 202 | 132 | 99 | 80 | 91 | 144 | 250 | 53.8% | 180 mm³ | 143 mm³ | 142 mm³ | 146 mm³ | 145 mm³ | 164 mm³ | 166 mm³ | 151 mm³ | 183 mm³ | 191 mm³ | 209 mm³ | Tumor volume [1, 11]: 518; Tumor volume [1, 12]: 766; Tumor volume ([1]; Study Day 35, MRTX1719 100 mg/kg QD PO): 1064; Tumor volume [2, 21]: 213 mm³; Tumor volume [2, 22]: 204 mm³; Tumor volume [2, 23]: 212 mm³; % Regression ([2]; final vs initial treated tumor volume, MRTX1133 30 mg/kg BID IP alone or with MRTX1719 100 mg/kg QD PO): −4.2% |
| Cn1ncc(-c2ccc3c(=O)[nH]nc(CN)c3c2)c1-c1c(F)c(Cl)cc(OC2CC2)c1C#N [MRTX1719] | 277 | 431 | 616 | 716 | 772 | 887 | 1222 | 1487 | 29.1% | 255 mm³ | 317 mm³ | 369 mm³ | 415 mm³ | 464 mm³ | 467 mm³ | 419 mm³ | 396 mm³ | 373 mm³ | 372 mm³ | 362 mm³ | Tumor volume [2, 21]: 356 mm³; Tumor volume [2, 22]: 337 mm³; Tumor volume [2, 23]: 200 mm³; % TGI (Tumor Growth Inhibition) ([2]; final vs initial treated tumor volume relative to vehicle, MRTX1719 100 mg/kg QD PO): 88.3% |
